Here are results for 24 compounds from US10227357B2, “Compounds and methods for kinase modulation, and indications therefor” (Plexxikon Inc., priority 2012, dated 2019).

Experiment [1] concerns the target T1, c-kit kinase (Homo sapiens, UniProt P10721).
T1 construct: The c-kit (or kinase domain thereof) is an active kinase in AlphaScreen; poly-Histidine tag (in-house protein only) (cleaved yes); host or cells: E. coli BL21(DE3)RIL, co-expressed with PTP1B
Briefly: c-Kit biochemical assay, AlphaScreen, 10 μM ATP. Particulars: c-kit biochemical inhibitory activity; read-out: Biochemical activity (IC50 μM) Kit. The gist of the method: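 His-tagged c-Kit expressed in E. coli with co-expressed PTP1B (dephosphorylated), tag removed; 0.1 ng per reaction with biotinylated-peptide substrate in 50 mM HEPES pH 7.2, 5 mM MgCl2, 5 mM MnCl2, 5% DMSO, 10 μM ATP, 1 h at room temperature. Phosphorylation detected by AlphaScreen (streptavidin donor, PY20 acceptor beads); IC50 from 8-point 1:3 dilution series.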
(Bead proximity is the source of the signal in Alpha formats.)

The target in experiment [2] is T2, c-kit mutant D816V (Homo sapiens, UniProt P10721, D816V/DEL694-753).
T2 construct: residues 551-934, kinase insertion domain residues 694-753 deleted; 6x-histidine (N); made in house; host or cells: E. coli Arctic Express (DE3) RIL (Stratagene)
Kind of experiment: c-Kit mutant D816V biochemical assay, AlphaScreen. Particulars: c-kit D816V biochemical inhibitory activity; read-out: Biochemical activity (IC50 μM) Kit D816V. In short, it runs like this:
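Purified His-tagged c-Kit D816V (E. coli-expressed) assayed in 25 mM HEPES pH 7.2 with Mg/Mn, 5% DMSO and 10 μM ATP, 30 min at room temperature, 8-point 1:3 dilutions. Phosphorylation detected by AlphaScreen with streptavidin donor and PY20 acceptor beads; IC50 from signal versus concentration.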

T1 sequence (P10721 26-976): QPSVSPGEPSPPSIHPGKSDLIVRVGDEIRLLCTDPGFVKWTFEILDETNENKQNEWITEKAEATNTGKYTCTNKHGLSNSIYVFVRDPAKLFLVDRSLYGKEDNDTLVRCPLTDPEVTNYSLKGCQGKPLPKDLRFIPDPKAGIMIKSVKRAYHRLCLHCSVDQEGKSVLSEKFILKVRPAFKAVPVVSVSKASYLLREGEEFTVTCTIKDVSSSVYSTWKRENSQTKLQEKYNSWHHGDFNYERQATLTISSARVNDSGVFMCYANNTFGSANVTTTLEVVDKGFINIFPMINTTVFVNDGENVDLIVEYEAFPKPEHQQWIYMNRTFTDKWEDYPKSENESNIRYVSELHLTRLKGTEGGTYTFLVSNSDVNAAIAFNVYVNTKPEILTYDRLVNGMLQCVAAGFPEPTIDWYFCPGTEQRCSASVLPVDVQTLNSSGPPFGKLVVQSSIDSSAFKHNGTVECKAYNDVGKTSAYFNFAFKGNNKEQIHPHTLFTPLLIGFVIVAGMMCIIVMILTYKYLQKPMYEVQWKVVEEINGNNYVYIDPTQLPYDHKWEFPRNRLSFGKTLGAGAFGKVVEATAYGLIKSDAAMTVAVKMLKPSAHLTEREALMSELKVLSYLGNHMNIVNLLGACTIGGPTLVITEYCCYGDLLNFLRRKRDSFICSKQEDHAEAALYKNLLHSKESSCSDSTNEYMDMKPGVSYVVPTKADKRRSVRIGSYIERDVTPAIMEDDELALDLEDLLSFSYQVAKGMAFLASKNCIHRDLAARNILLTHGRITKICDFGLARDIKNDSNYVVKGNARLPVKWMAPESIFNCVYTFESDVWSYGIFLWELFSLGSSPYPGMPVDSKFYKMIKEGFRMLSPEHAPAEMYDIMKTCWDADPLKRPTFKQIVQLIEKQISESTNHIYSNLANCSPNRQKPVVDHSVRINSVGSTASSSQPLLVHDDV
T2 sequence (P10721 with tags, fused parts or gaps DEL694-753/D816V): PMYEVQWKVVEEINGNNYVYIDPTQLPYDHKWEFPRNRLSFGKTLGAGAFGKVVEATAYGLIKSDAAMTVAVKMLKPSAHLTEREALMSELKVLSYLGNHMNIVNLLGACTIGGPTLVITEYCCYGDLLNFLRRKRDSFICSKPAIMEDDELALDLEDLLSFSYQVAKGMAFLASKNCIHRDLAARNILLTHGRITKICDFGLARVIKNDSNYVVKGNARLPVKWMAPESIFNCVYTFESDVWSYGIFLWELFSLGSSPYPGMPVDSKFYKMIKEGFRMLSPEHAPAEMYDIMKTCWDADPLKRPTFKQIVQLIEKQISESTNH

As for `COc1cc(-c2cc3c(N4CCN(C(=O)N[C@@H](C)c5cccc(OC(F)F)c5)C(C)(C)C4)ncnc3[nH]2)ccn1` [P-0012, N-[(1S)-1-[3-(difluoromethoxy)phenyl]ethyl]-4-[6-(2-methoxy-4-pyridyl)-7H-pyrrolo[2,3-d]pyrimidin-4-yl]-2,2-dimethyl-piperazine-1-carboxamide], the IC50 lay in the range of 1 to 10 µM in experiment [1] and 0.0001 to 1 µM in experiment [2].
`Cc1ccc(-c2cc3c(N4CCN(c5nc6ccccc6[nH]5)CC4)ncnc3[nH]2)cn1` [P-0013, 4-[4-(1H-benzimidazol-2-yl)piperazin-1-yl]-6-(6-methyl-3-pyridyl)-7H-pyrrolo[2,3-d]pyrimidine]: the IC50 in experiment [1] lay in the range of 1 to 10 µM; in experiment [2] it was 0.0001 to 1 µM.
Regarding `C[C@H](NC(=O)N1CCN(c2ncnc3[nH]c(-c4ccc(F)cc4)cc23)C[C@H]1C)c1cccc(OC(F)F)c1` [P-0014, (2R)-N-[(1S)-1-[3-(difluoromethoxy)phenyl]ethyl]-4-[6-(4-fluorophenyl)-7H-pyrrolo[2,3-d]pyrimidin-4-yl]-2-methyl-piperazine-1-carboxamide], the IC50 in experiment [1] lay within 1 to 10 µM; in experiment [2], 0.0001 to 1 µM.
Consider `[2H]C([2H])([2H])Oc1cccc([C@H](C)NC(=O)N2CCN(c3ncnc4[nH]c(-c5ccc(F)cc5)cc34)CC2)c1` [P-0015, 4-[6-(4-fluorophenyl)-7H-pyrrolo[2,3-d]pyrimidin-4-yl]-N-[(1S)-1-[3-(trideuteriomethoxy)phenyl]ethyl]piperazine-1-carboxamide], for which the IC50 lay within 1 to 10 µM in experiment [1] and 0.0001 to 1 µM in experiment [2].
On to `C[C@H](NC(=O)N1CCN(c2ncnc3[nH]c(-c4ccc(F)cc4)cc23)CC1)c1cccc(N(C)C)c1` [P-0016, N-[(1S)-1-[3-(dimethylamino)phenyl]ethyl]-4-[6-(4-fluorophenyl)-7H-pyrrolo[2,3-d]pyrimidin-4-yl]piperazine-1-carboxamide], for which the IC50 in experiment [1] was 1 to 10 µM; in experiment [2], 0.0001 to 1 µM.
For `COc1ccc([C@H](C)NC(=O)N2CCN(c3ncnc4[nH]c(-c5ccc(F)cc5)cc34)C[C@H]2C)cc1` [P-0018, (2R)-4-[6-(4-fluorophenyl)-7H-pyrrolo[2,3-d]pyrimidin-4-yl]-N-[(1S)-1-(4-methoxyphenyl)ethyl]-2-methyl-piperazine-1-carboxamide] the same measures were 1 to 10 µM and 0.0001 to 1 µM.
On the same counts, the results for `COc1ccc([C@@H](C)NC(=O)N2CCN(c3ncnc4[nH]c(-c5ccc(Cl)cc5)cc34)C[C@H]2C)cc1` [P-0019, (2R)-4-[6-(4-chlorophenyl)-7H-pyrrolo[2,3-d]pyrimidin-4-yl]-N-[(1R)-1-(4-methoxyphenyl)ethyl]-2-methyl-piperazine-1-carboxamide] are 10 to 200 µM and 1 to 10 µM.
`C[C@H](NC(=O)N1CCN(c2ncnc3[nH]c(-c4ccc(Cl)cc4)cc23)C[C@H]1C)c1ccc(Cl)cc1` [P-0020, (2R)-N-[(1S)-1-(4-chlorophenyl)ethyl]-4-[6-(4-chlorophenyl)-7H-pyrrolo[2,3-d]pyrimidin-4-yl]-2-methyl-piperazine-1-carboxamide]: the 50% inhibitory concentration (IC50) in experiment [1] and in experiment [2] was 1 to 10 µM in each case.
For `C[C@H](NC(=O)N1CCN(c2ncnc3[nH]c(-c4ccc(Cl)cc4)cc23)C[C@H]1C)c1ccc(F)cc1` [P-0023, (2R)-4-[6-(4-chlorophenyl)-7H-pyrrolo[2,3-d]pyrimidin-4-yl]-N-[(1S)-1-(4-fluorophenyl)ethyl]-2-methyl-piperazine-1-carboxamide], the IC50 was 10 to 200 µM in experiment [1] and 0.0001 to 1 µM in experiment [2].
In the case of `COc1cccc([C@H](C)NC(=O)N2CCN(c3ncnc4[nH]c(-c5ccc(Cl)cc5)cc34)C[C@H]2C)c1` [P-0024, (2R)-4-[6-(4-chlorophenyl)-7H-pyrrolo[2,3-d]pyrimidin-4-yl]-N-[(1S)-1-(3-methoxyphenyl)ethyl]-2-methyl-piperazine-1-carboxamide], the IC50 was 1 to 10 µM in experiment [1] and 0.0001 to 1 µM in experiment [2].
As to `C[C@H](NC(=O)N1CCN(c2ncnc3[nH]c(-c4ccc(F)cc4)cc23)CC1)c1cccc(Cl)c1` [P-0027, N-[(1S)-1-(3-chlorophenyl)ethyl]-4-[6-(4-fluorophenyl)-7H-pyrrolo[2,3-d]pyrimidin-4-yl]piperazine-1-carboxamide], the half-maximal inhibitory concentration (IC50) lay in the range of 10 to 200 µM in experiment [1] and 0.0001 to 1 µM in experiment [2].
For `COc1cccc([C@H](C)NC(=O)N2CCN(c3ncnc4[nH]c(-c5ccc(F)cc5)cc34)C[C@H]2C)c1` [P-0028, (R)-4-[6-(4-Fluoro-phenyl)-7H-pyrrolo[2,3-d]pyrimidin-4-yl]-2-methyl-piperazine-1-carboxylic acid [(S)-1-(3-methoxy-phenyl)-ethyl]-amide] the same measures were 0.0001 to 1 µM and 0.0001 to 1 µM.
`C[C@H](NC(=O)N1CCN(c2ncnc3[nH]c(-c4ccc(F)cc4)cc23)C[C@H]1C)c1ccc(Cl)cc1` [P-0029, (2R)-N-[(1S)-1-(4-chlorophenyl)ethyl]-4-[6-(4-fluorophenyl)-7H-pyrrolo[2,3-d]pyrimidin-4-yl]-2-methyl-piperazine-1-carboxamide]: the IC50 is 10 to 200 µM in experiment [1] and 0.0001 to 1 µM in experiment [2].
In the case of `C[C@H](NC(=O)N1CCN(c2ncnc3[nH]c(-c4ccc(F)cc4)cc23)C[C@H]1C)c1ccc(F)cc1` [P-0030, (2R)-N-[(1S)-1-(4-fluorophenyl)ethyl]-4-[6-(4-fluorophenyl)-7H-pyrrolo[2,3-d]pyrimidin-4-yl]-2-methyl-piperazine-1-carboxamide], the concentration for half-maximal inhibition (IC50) fell in the range of 10 to 200 µM in experiment [1] and 0.0001 to 1 µM in experiment [2].
As for `COc1ccc([C@@H](C)NC(=O)N2CCN(c3ncnc4[nH]c(-c5ccc(F)cc5)cc34)C[C@H]2C)cc1` [P-0031, (2R)-4-[6-(4-fluorophenyl)-7H-pyrrolo[2,3-d]pyrimidin-4-yl]-N-[(1R)-1-(4-methoxyphenyl)ethyl]-2-methyl-piperazine-1-carboxamide], the IC50 in experiment [1] lay within 10 to 200 µM; in experiment [2], 1 to 10 µM.
`COc1cccc([C@@H](C)NC(=O)N2CCN(c3ncnc4[nH]c(-c5ccc(F)cc5)cc34)C[C@H]2C)c1` [P-0032, (2R)-4-[6-(4-fluorophenyl)-7H-pyrrolo[2,3-d]pyrimidin-4-yl]-N-[(1R)-1-(3-methoxyphenyl)ethyl]-2-methyl-piperazine-1-carboxamide]: the IC50 in experiment [1] is 10 to 200 µM; in experiment [2] it was 1 to 10 µM.
For `C[C@@H]1CN(c2ncnc3[nH]c(-c4ccc(F)cc4)cc23)CCN1C(=O)N[C@H](C)c1ccc(Cl)cc1` [P-0035, (2R)-N-[(1R)-1-(4-chlorophenyl)ethyl]-4-[6-(4-fluorophenyl)-7H-pyrrolo[2,3-d]pyrimidin-4-yl]-2-methyl-piperazine-1-carboxamide] the same measures were 10 to 200 µM and 1 to 10 µM.
As for `C[C@H]1CN(c2ncnc3[nH]c(-c4ccncc4)cc23)CCN1C(=O)NCc1ccc(Cl)cc1` [P-0044, (2S)-N-[(4-chlorophenyl)methyl]-2-methyl-4-[6-(4-pyridyl)-7H-pyrrolo[2,3-d]pyrimidin-4-yl]piperazine-1-carboxamide], the IC50 in experiment [1] and in experiment [2] was 0.0001 to 1 µM in each case.
Regarding `C[C@H]1CN(c2ncnc3[nH]c(-c4ccncc4)cc23)CCN1C(=O)Nc1ccc(Cl)cc1` [P-0045, (2S)-N-(4-chlorophenyl)-2-methyl-4-[6-(4-pyridyl)-7H-pyrrolo[2,3-d]pyrimidin-4-yl]piperazine-1-carboxamide], the IC50 in experiment [1] and in experiment [2] was 1 to 10 µM in each case.
Take `COc1cccc([C@H](C)NC(=O)N2CCN(c3ncnc4[nH]c(C#CC5CC5)cc34)CC2)c1` [P-0047, 4-[6-(2-cyclopropylethynyl)-7H-pyrrolo[2,3-d]pyrimidin-4-yl]-N-[(1S)-1-(3-methoxyphenyl)ethyl]piperazine-1-carboxamide]: the IC50 in experiment [1] lay in the range of 1 to 10 µM; in experiment [2] it was 0.0001 to 1 µM.
As to `CN(C)c1ccc(NC(=O)N2CCN(c3ncnc4[nH]c(C#CC5CC5)cc34)CC2)cc1` [P-0052, 4-[6-(2-cyclopropylethynyl)-7H-pyrrolo[2,3-d]pyrimidin-4-yl]-N-(4-dimethylaminophenyl)piperazine-1-carboxamide], the IC50 in experiment [1] is 1 to 10 µM; in experiment [2] it was 10 to 200 µM.
For `O=C(Nc1ccc(OC(F)(F)F)cc1)N1CCN(c2ncnc3[nH]c(C#CC4CC4)cc23)CC1` [P-0053, 4-[6-(2-cyclopropylethynyl)-7H-pyrrolo[2,3-d]pyrimidin-4-yl]-N-[4-(trifluoromethoxy)phenyl]piperazine-1-carboxamide] the same measures were 1 to 10 µM and 10 to 200 µM.
As to `C[C@@H]1CN(c2ncnc3[nH]c(-c4ccncc4)cc23)CCN1C(=O)NCc1cccc(Cl)c1` [P-0056, (2R)-N-[(3-chlorophenyl)methyl]-2-methyl-4-[6-(4-pyridyl)-7H-pyrrolo[2,3-d]pyrimidin-4-yl]piperazine-1-carboxamide], the IC50 in experiment [1] fell in the range of 1 to 10 µM; in experiment [2] it was 0.0001 to 1 µM.
As to `COc1ccc(NC(=O)N2CCN(c3ncnc4[nH]c(-c5ccncc5)cc34)C[C@H]2C)cn1` [P-0057, (2R)-N-(6-methoxy-3-pyridyl)-2-methyl-4-[6-(4-pyridyl)-7H-pyrrolo[2,3-d]pyrimidin-4-yl]piperazine-1-carboxamide], the half-maximal inhibitory concentration (IC50) in experiment [1] lay in the range of 1 to 10 µM; in experiment [2], 0.0001 to 1 µM.

The IC50 is the point on the concentration scale where inhibition reaches its midpoint.
